Measurements reported in article PMC9120017, “Inhibition mechanism of the chloride channel TMEM16A by the pore blocker 1PBC” (Nature Communications, 2022).
Read-outs that look alike come from different tables or passages of the source.

Target: T1, mouse TMEM16A mutant Y514A (Mus musculus, UniProt Q8BHY3, Y514A)
T1 construct: expressed in transfected cells; host or cells: HEK293T
T1 sequence (Q8BHY3 1-960 Y514A): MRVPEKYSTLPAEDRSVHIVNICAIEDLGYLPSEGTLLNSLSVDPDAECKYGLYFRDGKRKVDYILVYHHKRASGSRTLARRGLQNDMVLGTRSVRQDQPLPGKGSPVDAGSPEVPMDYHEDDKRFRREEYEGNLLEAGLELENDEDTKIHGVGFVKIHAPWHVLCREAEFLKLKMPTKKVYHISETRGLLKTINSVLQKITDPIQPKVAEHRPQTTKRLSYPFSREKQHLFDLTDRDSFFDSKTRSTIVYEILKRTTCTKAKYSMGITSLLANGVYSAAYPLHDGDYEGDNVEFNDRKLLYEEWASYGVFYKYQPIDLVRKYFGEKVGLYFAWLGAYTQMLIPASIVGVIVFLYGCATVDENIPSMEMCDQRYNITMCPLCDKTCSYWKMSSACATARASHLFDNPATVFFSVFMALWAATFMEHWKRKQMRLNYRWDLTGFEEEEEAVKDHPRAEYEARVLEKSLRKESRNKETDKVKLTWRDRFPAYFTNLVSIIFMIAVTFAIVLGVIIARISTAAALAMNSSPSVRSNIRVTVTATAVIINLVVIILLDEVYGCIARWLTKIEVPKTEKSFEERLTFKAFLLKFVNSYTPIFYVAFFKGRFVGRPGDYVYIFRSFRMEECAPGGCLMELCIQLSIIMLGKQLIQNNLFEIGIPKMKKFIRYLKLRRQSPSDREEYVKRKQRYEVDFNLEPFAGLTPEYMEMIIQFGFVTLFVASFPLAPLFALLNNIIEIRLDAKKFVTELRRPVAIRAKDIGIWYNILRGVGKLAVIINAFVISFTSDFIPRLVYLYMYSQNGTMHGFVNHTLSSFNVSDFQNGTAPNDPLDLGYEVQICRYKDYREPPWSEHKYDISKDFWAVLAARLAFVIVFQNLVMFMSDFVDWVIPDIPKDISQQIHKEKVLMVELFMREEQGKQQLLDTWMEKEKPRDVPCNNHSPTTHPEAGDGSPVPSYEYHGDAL
Assay: Inside-out patch recording of 1PBC block, mutant Y514A
Type: cell-based
Conditions: for remaining activity at 10 µM: 1PBC 10; for remaining activity at 10 µM / remaining activity at 30 µM / remaining activity at 100 µM: read-out: fraction of unblocked current; for remaining activity at 30 µM: 1PBC 30; for remaining activity at 100 µM: 1PBC 100
Protocol: HEK293T cells (ATCC CRL-1573) were maintained in Dulbecco’s modified Eagle’s medium (DMEM; Sigma-Aldrich) supplemented with 10 U ml^−1 penicillin, 0.1 mg ml^−1 streptomycin (Sigma-Aldrich), 2 mM L-glutamine (Sigma-Aldrich), and 10% FBS (Sigma-Aldrich) in a humidified atmosphere containing 5% CO2 at 37 °C. HEK293S GnTI^− cells (ATCC CRL-3022) were maintained in HyClone HyCell TransFx-H medium (GE Healthcare) supplemented with 10 U ml^−1 penicillin, 0.1 mg ml^−1 streptomycin, 4 mM L-glutamine, 0.15% poloxamer 188 (Sigma-Aldrich), and 1% FBS in an atmosphere containing 5% CO2 at 185 rpm at 37 °C. The ac splice variant of mouse TMEM16A (UniProt ID: Q8BHY3), mouse TMEM16B (UniProt ID: Q8CFW1), or mouse TMEM16F (UniProt ID: Q6P9J9) bearing a 3C cleavage site, a Venus YFP, a Myc tag, and a Streptavidin-binding peptide (SBP) downstream of the open reading frame in a modified pcDNA3.1 vector (Invitrogen) were used as described previously[21],[31]. Mutations were introduced using a modified QuikChange method[58] and were verified by sequencing.
HEK293T cells were transfected with 3–4 μg DNA per 6 cm Petri dish using the calcium phosphate co-precipitation method and were used within 24–96 h after transfection. Recordings were performed on inside-out patches excised from HEK293T cells expressing the construct of interest. Patch pipettes were pulled from borosilicate glass capillaries (O.D. 1.5 mm, I.D. 0.86 mm, Sutter Instrument) and were fire-polished with a microforge (Narishige) before use. Pipette resistance was typically 3–8 MΩ when filled with the recording solutions detailed below. Seal resistance was typically 4 GΩ or higher. Voltage-clamp recordings were made using Axopatch 200B, Digidata 1550, and Clampex 10.7 (Molecular Devices). Analog signals were filtered with the in-built 4-pole Bessel filter at 10 kHz and were digitized at 20 kHz. Solution exchange was achieved using a gravity-fed system through a theta glass pipette mounted on an ultra-fast piezo-driven stepper (Siskiyou). […] All recordings were performed at 20 °C.
A symmetrical ionic condition was used throughout. Stock solution with Ca^2+-EGTA contained 150 mM NaCl, 5.99 mM Ca(OH)2, 5 mM EGTA, and 10 mM HEPES at pH 7.40. Stock solution with EGTA contained 150 mM NaCl, 5 mM EGTA, and 10 mM HEPES at pH 7.40. Free Ca^2+ concentrations were adjusted by mixing the stock solutions at the required ratios calculated using the WEBMAXC program (http://web.stanford.edu/~cpatton/webmaxcS.htm). Patch pipettes were filled with the stock solution with Ca^2+-EGTA, which has a free Ca^2+ concentration of 1 mM. 1PBC (ChemBridge) stock was reconstituted in anhydrous DMSO (Sigma-Aldrich) at 100 mM and stored at −20 °C. Working solutions with 1PBC were prepared by serial dilution. Unless otherwise stated, experiments were performed at a saturating Ca^2+ concentration as shown in Supplementary Table 1 and the primary data were corrected for current rundown as described previously[21],[25].
Concentration-response relations, obtained from the ratio of the I-V plots before and after the application of the blocker, were fitted to the Hill equation,1 I/Imax=1/1+IC50/[blocker]^h where I/Imax is the normalized current responses, IC50 defines the concentration at which inhibition is at its half-maximum, and h is the Hill coefficient.

SMILES: N#Cc1c(C(F)(F)F)cc(O)n2c1nc1ccccc12 [1PBC]
- IC50 (0 mV, 2 µM Ca2+): 22.8 µM
- remaining activity at 10 µM (0 mV): 71.6%
- remaining activity at 10 µM (20 mV): 67.7%
- remaining activity at 10 µM (40 mV): 65.8%
- remaining activity at 10 µM (60 mV): 59.8%
- remaining activity at 10 µM (80 mV): 58.2%
- remaining activity at 10 µM (100 mV): 57.1%
- remaining activity at 10 µM (120 mV): 53.3%
- remaining activity at 10 µM (140 mV): 53.7%
- remaining activity at 10 µM (-20 mV): 75.5%
- remaining activity at 10 µM (-40 mV): 78.8%
- remaining activity at 10 µM (-60 mV): 81.3%
- remaining activity at 10 µM (-80 mV): 82.9%
- remaining activity at 10 µM (-100 mV): 85.5%
- remaining activity at 10 µM (-120 mV): 87.1%
- remaining activity at 10 µM (-140 mV): 86.2%
- remaining activity at 30 µM (0 mV): 41%
- remaining activity at 30 µM (20 mV): 37.8%
- remaining activity at 30 µM (40 mV): 34.4%
- remaining activity at 30 µM (60 mV): 31.9%
- remaining activity at 30 µM (80 mV): 28.9%
- remaining activity at 30 µM (100 mV): 27.6%
- remaining activity at 30 µM (120 mV): 26.5%
- remaining activity at 30 µM (140 mV): 26.4%
- remaining activity at 30 µM (-20 mV): 44.3%
- remaining activity at 30 µM (-40 mV): 50%
- remaining activity at 30 µM (-60 mV): 56.5%
- remaining activity at 30 µM (-80 mV): 60.4%
- remaining activity at 30 µM (-100 mV): 64.5%
- remaining activity at 30 µM (-120 mV): 67.9%
- remaining activity at 30 µM (-140 mV): 70.2%
- remaining activity at 100 µM (0 mV): 19.2%
- remaining activity at 100 µM (20 mV): 15.9%
- remaining activity at 100 µM (40 mV): 14.2%
- remaining activity at 100 µM (60 mV): 13.7%
- remaining activity at 100 µM (80 mV): 12.7%
- remaining activity at 100 µM (100 mV): 11.3%
- remaining activity at 100 µM (120 mV): 11.7%
- remaining activity at 100 µM (140 mV): 12.2%
- remaining activity at 100 µM (-20 mV): 22.6%
- remaining activity at 100 µM (-40 mV): 25.4%
- remaining activity at 100 µM (-60 mV): 29.3%
- remaining activity at 100 µM (-80 mV): 32.8%
- remaining activity at 100 µM (-100 mV): 38%
- remaining activity at 100 µM (-120 mV): 42.9%
- remaining activity at 100 µM (-140 mV): 48.1%
- IC50 (20 mV, 2 µM Ca2+): 19.4 µM
- IC50 (40 mV, 2 µM Ca2+): 17.3 µM
- IC50 (60 mV, 2 µM Ca2+): 14.6 µM
- log-fold IC50 (change of mutant vs WT) (80 mV): 0.6902
- IC50 (80 mV, 2 µM Ca2+): 13.3 µM
- IC50 (100 mV, 2 µM Ca2+): 12.5 µM
- IC50 (120 mV, 2 µM Ca2+): 11.3 µM
- IC50 (140 mV, 2 µM Ca2+): 11.5 µM
- IC50 (-20 mV, 2 µM Ca2+): 26.9 µM
- IC50 (-40 mV, 2 µM Ca2+): 32.7 µM
- IC50 (-60 mV, 2 µM Ca2+): 40.6 µM
- IC50 (-80 mV, 2 µM Ca2+): 47.4 µM
- IC50 (-100 mV, 2 µM Ca2+): 58 µM
- IC50 (-120 mV, 2 µM Ca2+): 69.6 µM
- IC50 (-140 mV, 2 µM Ca2+): 81 µM
- IC50 (Y514A, V 0 mV): 22.8 µM
- IC50 (Y514A, V 20 mV): 19.4 µM
- IC50 (Y514A, V 40 mV): 17.3 µM
- IC50 (Y514A, V 60 mV): 14.6 µM
- IC50 (Y514A, V 80 mV): 13.3 µM
- IC50 (Y514A, V 100 mV): 12.5 µM
- IC50 (Y514A, V 120 mV): 11.3 µM
- IC50 (Y514A, V 140 mV): 11.5 µM
- IC50 (Y514A, V -20 mV): 26.9 µM
- IC50 (Y514A, V -40 mV): 32.7 µM
- IC50 (Y514A, V -60 mV): 40.6 µM
- IC50 (Y514A, V -80 mV): 47.4 µM
- IC50 (Y514A, V -100 mV): 58 µM
- IC50 (Y514A, V -120 mV): 69.6 µM
- IC50 (Y514A, V -140 mV): 81 µM
